The record followed here is PubChem BioAssay AID248 (DTP/NCI, 2004).

The subject of the experiment is L1210 leukemia ip in BDF1 mice, survival T/C. Put plainly: NCI In Vivo Anticancer Drug Screen. Data for tumor model L1210 Leukemia (intraperitoneal) in B6D2F1 (BDF1) mice. Conditions: endpoint: mean survival time, higher = longer survival. Summed up: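 Each compound was tested against a transplantable tumor grown in mice. The endpoint was survival, with treated animals benchmarked against vehicle controls as a simple ratio.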

Setting [1] is: dose: 50.0 mg/kg/injection, schedule: Q01DX001 (ip), vehicle: saline.
Setting [2] is: dose: 100.0 mg/kg/injection, schedule: Q01DX009 (ip), vehicle: Klucel (hydroxypropylcellulose) (HPC).
[3] abbreviates: dose: 200.0 mg/kg/injection, schedule: Q01DX009 (ip), vehicle: Klucel (hydroxypropylcellulose) (HPC).
The mark [4] stands for this setting: dose: 400.0 mg/kg/injection, schedule: Q01DX009 (ip), vehicle: Klucel (hydroxypropylcellulose) (HPC).
[5] abbreviates: dose: 100.0 mg/kg/injection, schedule: Q01DX009 (ip), vehicle: saline.
The mark [6] stands for this setting: dose: 100.0 mg/kg/injection, schedule: Q04DX003 (ip), vehicle: saline.
[7] abbreviates: dose: 200.0 mg/kg/injection, schedule: Q01DX009 (ip), vehicle: saline.
The mark [8] stands for this setting: dose: 200.0 mg/kg/injection, schedule: Q04DX003 (ip), vehicle: saline.
Setting [9] is: dose: 400.0 mg/kg/injection, schedule: Q01DX009 (ip), vehicle: saline.
Where [10] appears, read: dose: 400.0 mg/kg/injection, schedule: Q04DX003 (ip), vehicle: saline.
[11] abbreviates: dose: 100.0 mg/kg/injection, schedule: Q04DX003 (ip), vehicle: saline with Tween-80.
Setting [12] is: dose: 200.0 mg/kg/injection, schedule: Q04DX003 (ip), vehicle: saline with Tween-80.
Where [13] appears, read: dose: 400.0 mg/kg/injection, schedule: Q04DX003 (ip), vehicle: saline with Tween-80.
Where [14] appears, read: dose: 100.0 mg/kg/injection, schedule: Q04DX003 (ip), vehicle: Klucel (hydroxypropylcellulose) (HPC).
Setting [15] is: dose: 200.0 mg/kg/injection, schedule: Q04DX003 (ip), vehicle: Klucel (hydroxypropylcellulose) (HPC).
Where [16] appears, read: dose: 400.0 mg/kg/injection, schedule: Q04DX003 (ip), vehicle: Klucel (hydroxypropylcellulose) (HPC).
[17] abbreviates: dose: 100.0 mg/kg/injection, schedule: Q01DX001 (ip), vehicle: saline.
Setting [18] is: dose: 200.0 mg/kg/injection, schedule: Q01DX001 (ip), vehicle: saline.
Where [19] appears, read: dose: 400.0 mg/kg/injection, schedule: Q01DX001 (ip), vehicle: saline.

SMILES strings stand for the structures. “And” between values parts separate entries of the source, which are not always exact repeats. Equal entries are not always repeated. Inconclusive results and toxic doses are left out.

Regarding `CC[n+]1ccc(Nc2ccc(/C=C/c3ccc4cc(Nc5cc[n+](CC)cc5)ccc4[n+]3CC)cc2)cc1`, the T/C was 112 % of control and 119 % of control and 120 % of control (dose: 2.5 mg/kg/injection, schedule: Q01DX009 (ip), vehicle: saline); 150 % of control (dose: 5.0 mg/kg/injection, schedule: Q01DX009 (ip), vehicle: saline); 182 % of control and 209 % of control (dose: 10.0 mg/kg/injection, schedule: Q01DX009 (ip), vehicle: saline); 100 % of control (dose: 12.5 mg/kg/injection, schedule: Q01DX001 (ip), vehicle: saline); 100 % of control (dose: 25.0 mg/kg/injection, schedule: Q01DX001 (ip), vehicle: saline); 112 % of control under setting [1].
On to `CC(C(=O)c1ccc(O)c(O)c1)N1CCCCC1` (centres undefined), for which the T/C (dose: 100.0 mg/kg/injection, schedule: Q01DX001 (ip), vehicle: carboxymethylcellulose (CMC)) was 102 % of control; the T/C (dose: 200.0 mg/kg/injection, schedule: Q01DX001 (ip), vehicle: carboxymethylcellulose (CMC)) was 102 % of control; the T/C (dose: 400.0 mg/kg/injection, schedule: Q01DX001 (ip), vehicle: carboxymethylcellulose (CMC)) is 96 % of control.
In the case of `COc1ccc(NC(=O)c2cccc([N+](=O)[O-])c2)cc1`, the T/C runs as follows: under setting [2], 96 % of control; under setting [3], 93 % of control; under setting [4], 96 % of control.
`O=C(/C=C/c1cccc2ccccc12)c1cccc([N+](=O)[O-])c1`: the T/C is 88 % of control (dose: 100.0 mg/kg/injection, schedule: Q04DX002 (ip), vehicle: gum acacia); 92 % of control (dose: 200.0 mg/kg/injection, schedule: Q04DX002 (ip), vehicle: gum acacia); 96 % of control (dose: 400.0 mg/kg/injection, schedule: Q04DX002 (ip), vehicle: gum acacia).
Turning to `Nc1c(Cl)nc(Cl)nc1C(F)(F)F`, the T/C (dose: 29.0 mg/kg/injection, schedule: Q01DX Z (ip), vehicle: methylcellulose (MC)) is 92 % of control and the T/C (dose: 44.0 mg/kg/injection, schedule: Q01DX Z (ip), vehicle: methylcellulose (MC)) was 95 % of control.
Turning to `NC(=O)CC(O)C(N)=O` (centres undefined), the T/C runs as follows: under setting [5], 94 % of control; under setting [6], 104 % of control; under setting [7], 95 % of control; under setting [8], 106 % of control; under setting [9], 99 % of control; under setting [10], 96 % of control.
For the compound `O=S(=O)(O)c1ccc(Cl)c(Cl)c1`, the T/C was 107 % of control (dose: 100.0 mg/kg/injection, schedule: Q04DX002 (ip), vehicle: saline); 100 % of control (dose: 200.0 mg/kg/injection, schedule: Q04DX002 (ip), vehicle: saline); 107 % of control (dose: 400.0 mg/kg/injection, schedule: Q04DX002 (ip), vehicle: saline).
Turning to `CC(O)(c1cccc(Cl)c1)C(c1ccccc1)c1ccccn1` (centres undefined), the T/C reads like this: under setting [11], 101 % of control and 100 % of control; under setting [12], 92 % of control and 106 % of control; under setting [13], 101 % of control and 106 % of control.
Consider `CCOC(=O)c1sc(NC(C)=O)c(C(=O)OCC)c1C`, for which the T/C is 96 % of control under setting [5]; 98 % of control under setting [11]; 101 % of control under setting [7]; 114 % of control under setting [12]; 101 % of control under setting [9]; 96 % of control under setting [13].
As for `Cc1ccc(C)c(NC(=O)Nc2cccc3ccccc23)c1`, the T/C reads like this: (dose: 100.0 mg/kg/injection, schedule: Q01DX009 (ip), vehicle: gum acacia) 96 % of control; under setting [14], 89 % of control; (dose: 200.0 mg/kg/injection, schedule: Q01DX009 (ip), vehicle: gum acacia) 100 % of control; under setting [15], 93 % of control; (dose: 400.0 mg/kg/injection, schedule: Q01DX009 (ip), vehicle: gum acacia) 91 % of control; under setting [16], 98 % of control.
Regarding `CCN(CC)C(=O)Cn1ccc(N)nc1=O`, the T/C reads like this: under setting [5], 115 % of control; under setting [6], 100 % of control; under setting [7], 98 % of control; under setting [8], 100 % of control; under setting [9], 97 % of control; under setting [10], 102 % of control.
As to `CN(C)CCOCCN(C)C`, the T/C is, setting by setting: under setting [17], 102 % of control; under setting [18], 105 % of control; under setting [19], 102 % of control.
For `COc1ccc(Cl)cc1NC(=O)Oc1ccc(NC(C)=O)cc1`, the T/C was 96 % of control under setting [2], 102 % of control under setting [3] and 98 % of control under setting [4].
For `BrC1(Br)C2CC3C(CC21)C3(Br)Br` (centres undefined), the T/C by setting is: (dose: 100.0 mg/kg/injection, schedule: Q01DX001 (ip), vehicle: saline sonified) 98 % of control; (dose: 200.0 mg/kg/injection, schedule: Q01DX001 (ip), vehicle: saline sonified) 96 % of control; (dose: 400.0 mg/kg/injection, schedule: Q01DX001 (ip), vehicle: saline sonified) 98 % of control.
Turning to `CS(=O)(=O)NC(=O)C[P+](c1ccccc1)(c1ccccc1)c1ccccc1`, the T/C reads like this: under setting [17], 96 % of control; under setting [18], 89 % of control; under setting [19], 98 % of control.
Turning to `Cc1cccc(C(=O)OCc2ccccc2CN2CCCCC2C)c1` (centres undefined), the T/C is 93 % of control (dose: 100.0 mg/kg/injection, schedule: Q01DX001 (ip), vehicle: Klucel (hydroxypropylcellulose) (HPC)) and 93 % of control (dose: 200.0 mg/kg/injection, schedule: Q01DX001 (ip), vehicle: Klucel (hydroxypropylcellulose) (HPC)).
`O=C1CCc2cc([N+](=O)[O-])ccc2O1`: the T/C under setting [1] was 103 % of control, the T/C under setting [17] is 92 % of control, the T/C under setting [18] is 94 % of control and the T/C under setting [19] is 103 % of control.
Take `CCOC(=O)C(=O)c1c(C)[nH]c2ccccc12`: the T/C reads like this: under setting [2], 96 % of control; under setting [14], 103 % of control; under setting [3], 92 % of control; under setting [15], 95 % of control; under setting [4], 94 % of control; under setting [16], 97 % of control.
For `CCOC(=O)C1(C(=O)OCC)C(C)CC(OCC)N1C(=O)c1cc2c(cc1[N+](=O)[O-])OCO2` (centres undefined), the T/C is, setting by setting: (dose: 25.0 mg/kg/injection, schedule: Q04DX003 (ip), vehicle: Klucel (hydroxypropylcellulose) (HPC)) 92 % of control; (dose: 50.0 mg/kg/injection, schedule: Q04DX003 (ip), vehicle: Klucel (hydroxypropylcellulose) (HPC)) 89 % of control; under setting [14], 94 % of control.
